Data as given in patent US6426369B1, “Oxethazaine as antimicrobial agent” (Eisai Co., Ltd., priority 1997, dated 2002).
In brackets after ≈: the same amount, converted by molar mass.

Legend:
[1] = tested on: Gram-positive bacteria; test: Antimicrobial activity (MIC) of oxethazaine and structure analogues against Gram-positive bacteria; type: cell-based
[2] = tested on: H. pylori; test: Antimicrobial activity test 6: oxethazaine in combination with an antibiotic (AMPC, CAM, RXM), checker board method; type: cell-based, Helicobacter pylori; parameters: key to growth of H. pylori: “−” indicates the inhibited growth of H. pylori (presence of antimicrobial activity); “+” indicates the growth of H. pylori (absence of antimicrobial activity)
Source text: The effect of combined use with amoxicillin (AMPC), clarithromycin (CAM) or roxithromycin (RXM) was examined in the same manner as in antimicrobial activity test 1, using the checker board method.

SMILES: CN(C(=O)CN(CCO)CC(=O)N(C)C(C)(C)Cc1ccccc1)C(C)(C)Cc1ccccc1 [Oxethazaine, 2,2′-[(2-hydroxyethyl)amino]bis[N-(1,1-dimethyl-2-phenylethyl)-N-methylacetamide]]
- MIC ([1]; Enterococcus faecalis, E. faecalis RIMD 3116001): 25 µg/mL (≈ 53.5 µM)
- MIC ([1]; Staphylococcus aureus, FDA209, S. aureus FDA 209-P): 12.5 µg/mL (≈ 26.7 µM)
- MIC ([1]; Staphylococcus epidermidis, ATCC12228, S. epidermidis ATCC 12228): 6.25 µg/mL (≈ 13.4 µM)
- effect on Gram-positive bacteria ([1]; conclusion): excellent effect
- growth of H. pylori ([2]; 89-355, oxethazaine 3.13 + CAM 0 μg/ml): +
- growth of H. pylori ([2]; 89-355, oxethazaine 6.25 + CAM 0 μg/ml): +
- growth of H. pylori ([2]; 89-355, oxethazaine 12.5 + CAM 0 μg/ml): −
- growth of H. pylori ([2]; 89-355, oxethazaine 25 + CAM 0 μg/ml): −
- growth of H. pylori ([2]; 89-355, oxethazaine 50 + CAM 0 μg/ml): −
- growth of H. pylori ([2]; 89-355, oxethazaine 100 + CAM 0 μg/ml): −
- growth of H. pylori ([2]; 89-357, oxethazaine 3.13 + CAM 0 μg/ml): +
- growth of H. pylori ([2]; 89-357, oxethazaine 6.25 + CAM 0 μg/ml): +
- growth of H. pylori ([2]; 89-357, oxethazaine 12.5 + CAM 0 μg/ml): +
- growth of H. pylori ([2]; 89-357, oxethazaine 25 + CAM 0 μg/ml): −
- growth of H. pylori ([2]; 89-357, oxethazaine 50 + CAM 0 μg/ml): −
- growth of H. pylori ([2]; 89-357, oxethazaine 100 + CAM 0 μg/ml): −
- growth of H. pylori ([2]; 90-388, oxethazaine 3.13 + CAM 0 μg/ml): +
- growth of H. pylori ([2]; 90-388, oxethazaine 6.25 + CAM 0 μg/ml): +
- growth of H. pylori ([2]; 90-388, oxethazaine 12.5 + CAM 0 μg/ml): +
- growth of H. pylori ([2]; 90-388, oxethazaine 25 + CAM 0 μg/ml): −
- growth of H. pylori ([2]; 90-388, oxethazaine 50 + CAM 0 μg/ml): −
- growth of H. pylori ([2]; 90-388, oxethazaine 100 + CAM 0 μg/ml): −
- growth of H. pylori ([2]; 90-390, oxethazaine 3.13 + CAM 0 μg/ml): +
- growth of H. pylori ([2]; 90-390, oxethazaine 6.25 + CAM 0 μg/ml): +
- growth of H. pylori ([2]; 90-390, oxethazaine 12.5 + CAM 0 μg/ml): +
- growth of H. pylori ([2]; 90-390, oxethazaine 25 + CAM 0 μg/ml): −
- growth of H. pylori ([2]; 90-390, oxethazaine 50 + CAM 0 μg/ml): −
- growth of H. pylori ([2]; 90-390, oxethazaine 100 + CAM 0 μg/ml): −
- growth of H. pylori ([2]; EH 12, oxethazaine 3.13 + CAM 0 μg/ml): +
- growth of H. pylori ([2]; EH 12, oxethazaine 6.25 + CAM 0 μg/ml): +
- growth of H. pylori ([2]; EH 12, oxethazaine 12.5 + CAM 0 μg/ml): −
- growth of H. pylori ([2]; EH 12, oxethazaine 25 + CAM 0 μg/ml): −
- growth of H. pylori ([2]; EH 12, oxethazaine 50 + CAM 0 μg/ml): −
- growth of H. pylori ([2]; EH 12, oxethazaine 100 + CAM 0 μg/ml): −
- growth of H. pylori ([2]; EH 13, oxethazaine 3.13 + CAM 0 μg/ml): +
- growth of H. pylori ([2]; EH 13, oxethazaine 6.25 + CAM 0 μg/ml): +
- growth of H. pylori ([2]; EH 13, oxethazaine 12.5 + CAM 0 μg/ml): +
- growth of H. pylori ([2]; EH 13, oxethazaine 25 + CAM 0 μg/ml): −
- growth of H. pylori ([2]; EH 13, oxethazaine 50 + CAM 0 μg/ml): −
- growth of H. pylori ([2]; EH 13, oxethazaine 100 + CAM 0 μg/ml): −
- growth of H. pylori ([2]; strain 90-388, oxethazaine 3.13 μg/ml, AMPC 0): +
- growth of H. pylori ([2]; strain 90-388, oxethazaine 6.25 μg/ml, AMPC 0): +
- growth of H. pylori ([2]; strain 90-388, oxethazaine 12.5 μg/ml, AMPC 0): +
- growth of H. pylori ([2]; strain 90-388, oxethazaine 25 μg/ml, AMPC 0): −
- growth of H. pylori ([2]; strain 90-388, oxethazaine 50 μg/ml, AMPC 0): −
- growth of H. pylori ([2]; strain 90-388, oxethazaine 100 μg/ml, AMPC 0): −
- growth of H. pylori ([2]; strain 90-390, oxethazaine 3.13 μg/ml, AMPC 0): +
- growth of H. pylori ([2]; strain 90-390, oxethazaine 6.25 μg/ml, AMPC 0): +
- growth of H. pylori ([2]; strain 90-390, oxethazaine 12.5 μg/ml, AMPC 0): +
- growth of H. pylori ([2]; strain 90-390, oxethazaine 25 μg/ml, AMPC 0): −
- growth of H. pylori ([2]; strain 90-390, oxethazaine 50 μg/ml, AMPC 0): −
- growth of H. pylori ([2]; strain 90-390, oxethazaine 100 μg/ml, AMPC 0): −
- growth of H. pylori ([2]; strain 90-397, CAM 0 μg/ml (oxethazaine alone), oxethazaine μg/ml by row r6-r11: 100, 50, 25, 12.5, 6.25, 3.13): +
- growth of H. pylori ([2]; strain 90-397, CAM 0.006 μg/ml, oxethazaine μg/ml: 100, 50, 25, 12.5, 6.25, 3.13, 0): +
- growth of H. pylori ([2]; strain 90-397, CAM 0.012 μg/ml, oxethazaine μg/ml: 100, 50, 25, 12.5, 6.25, 3.13, 0): +
- growth of H. pylori ([2]; strain 90-397, CAM 0.024 μg/ml, oxethazaine μg/ml: 100, 50, 25, 12.5, 6.25, 3.13, 0): +
- growth of H. pylori ([2]; strain 90-397, CAM 0.05 μg/ml, oxethazaine μg/ml: 100, 50, 25, 12.5, 6.25, 3.13, 0): +
- growth of H. pylori ([2]; strain 90-397, CAM 0.1 μg/ml, oxethazaine μg/ml: 100, 50, 25, 12.5, 6.25, 3.13, 0): −
- growth of H. pylori ([2]; strain 90-397, CAM 0.2 μg/ml, oxethazaine μg/ml: 100, 50, 25, 12.5, 6.25, 3.13, 0): −
- growth of H. pylori ([2]; strain 90-397, CAM 0.4 μg/ml, oxethazaine μg/ml: 100, 50, 25, 12.5, 6.25, 3.13, 0): −
- growth of H. pylori ([2]; strain 90-397, CAM 0.8 μg/ml, oxethazaine μg/ml: 100, 50, 25, 12.5, 6.25, 3.13, 0): −
- growth of H. pylori ([2]; strain 90-397, CAM 1.56 μg/ml, oxethazaine μg/ml: 100, 50, 25, 12.5, 6.25, 3.13, 0): −
- growth of H. pylori ([2]; strain 90-397, CAM 3.13 μg/ml, oxethazaine μg/ml: 100, 50, 25, 12.5, 6.25, 3.13, 0): −
- growth of H. pylori ([2]; strain 90-397, CAM 6.25 μg/ml, oxethazaine μg/ml: 100, 50, 25, 12.5, 6.25, 3.13, 0): −
- growth of H. pylori ([2]; strain 90-397, CAM 12.5 μg/ml, oxethazaine μg/ml: 100, 50, 25, 12.5, 6.25, 3.13, 0): −
